In ChEMBL document CHEMBL1201862, “PubChem BioAssay data set” (2004):
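Dose response: 5 concentrations. Exposure: 48 h. Format: 96-well plates. Endpoint: linear interpolation; highest concentration if not reached. Here, GI50 denotes the concentration required for 50% inhibition of growth.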 Calls of active or inactive are those of the source. No stated cut-off is given here; in the data, active = GI50 up to about 1.1 µM and inactive = higher.

What was measured:
Test in all cases: DTP human tumour cell line panel, 48 h
[1] = system: M19-MEL
[2] = system: SNB-75
[3] = system: NCI-H522
[4] = system: OVCAR-8
[5] = system: SNB-19
[6] = system: HOP-18
[7] = system: EKVX
[8] = system: UO-31
[9] = system: K562
[10] = system: U-251
[11] = system: XF498
[12] = system: 786-0
[13] = system: NCI-H460
[14] = system: IGROV-1
[15] = system: HOP-62
[16] = system: DMS-273
[17] = system: SNB-78
[18] = system: UACC-62
[19] = system: HCT-15
[20] = system: NCI-H23
[21] = system: CCRF-CEM
[22] = system: ACHN
[23] = system: HL-60
[24] = system: UACC-257
[25] = system: COLO 205
[26] = system: SF-295
[27] = system: SK-OV-3
[28] = system: SN12C
[29] = system: DMS-114
[30] = system: RXF 393
[31] = system: OVCAR-4
[32] = system: SW-620
[33] = system: HT-29
[34] = system: CAKI-1
[35] = system: HCC 2998
[36] = system: HCT-116
[37] = system: LXFL 529
[38] = system: TK-10
[39] = system: OVCAR-3
[40] = system: MOLT-4
[41] = system: A549
[42] = system: DLD-1
[43] = system: M14
[44] = system: OVCAR-5
[45] = system: SR
[46] = system: SF-268
[47] = system: A498
[48] = system: KM-20L2
[49] = system: NCI-H226
[50] = system: HOP-92
[51] = system: KM12
[52] = system: Malme-3M
[53] = system: RPMI-8226
[54] = system: LOX IMVI
[55] = system: SK-MEL-5
[56] = system: SF-539
[57] = system: SK-MEL-28
[58] = system: SK-MEL-2

O=C(Nc1ccc(Cl)c(C(F)(F)F)c1)C(=O)C(C(=O)/C=C/c1ccccc1)C1OC(=O)c2ccccc21 (stereo not given)
GI50 [1]: 84.9 µM (inactive)
GI50 [2]: > 100 µM (inactive)
GI50 [3]: 63.1 µM (inactive)
GI50 [4]: > 100 µM (inactive)
GI50 [5]: > 100 µM (inactive)
GI50 [6]: > 100 µM (inactive)
GI50 [7]: > 100 µM (inactive)
GI50 [8]: > 100 µM (inactive)
GI50 [9]: > 100 µM (inactive)
GI50 [10]: 51.9 µM (inactive)
GI50 [11]: > 100 µM (inactive)
GI50 [12]: > 100 µM (inactive)
GI50 [13]: > 100 µM (inactive)
GI50 [14]: > 100 µM (inactive)
GI50 [15]: > 100 µM (inactive)
GI50 [16]: > 100 µM (inactive)
GI50 [17]: 64 µM (inactive)
GI50 [18]: 71.1 µM (inactive)
GI50 [19]: > 100 µM
GI50 [20]: > 100 µM (inactive)
GI50 [21]: > 100 µM (inactive)
GI50 [22]: > 100 µM (inactive)
GI50 [23]: > 100 µM (inactive)
GI50 [24]: > 100 µM (inactive)
GI50 [25]: > 100 µM (inactive)
GI50 [26]: > 100 µM (inactive)
GI50 [27]: > 100 µM (inactive)
GI50 [28]: > 100 µM (inactive)
GI50 [29]: 66.5 µM (inactive)
GI50 [30]: 93.5 µM (inactive)
GI50 [31]: > 100 µM (inactive)
GI50 [32]: > 100 µM (inactive)
GI50 [33]: > 100 µM (inactive)
GI50 [34]: > 100 µM (inactive)
GI50 [35]: > 100 µM (inactive)
GI50 [36]: 33.1 µM (inactive)
GI50 [37]: 57.4 µM (inactive)
GI50 [38]: > 100 µM (inactive)
GI50 [39]: > 100 µM (inactive)
GI50 [40]: > 100 µM (inactive)
GI50 [41]: > 100 µM (inactive)
GI50 [42]: > 100 µM (inactive)
GI50 [43]: > 100 µM (inactive)
GI50 [44]: > 100 µM (inactive)
GI50 [45]: > 100 µM (inactive)
GI50 [46]: > 100 µM (inactive)
GI50 [47]: > 100 µM (inactive)
GI50 [48]: > 100 µM (inactive)
GI50 [49]: > 100 µM (inactive)
GI50 [50]: > 100 µM (inactive)
GI50 [51]: > 100 µM (inactive)
GI50 [52]: > 100 µM (inactive)
GI50 [53]: 72.8 µM (inactive)
GI50 [54]: 90.2 µM (inactive)

CC12CCc3ccccc3C1=NNC(=O)C2 (stereo not given)
GI50 [1]: > 100 µM (inactive)
GI50 [2]: > 100 µM (inactive)
GI50 [3]: > 100 µM (inactive)
GI50 [4]: > 100 µM (inactive)
GI50 [5]: > 100 µM (inactive)
GI50 [6]: > 100 µM (inactive)
GI50 [55]: > 100 µM (inactive)
GI50 [7]: > 100 µM (inactive)
GI50 [8]: > 100 µM (inactive)
GI50 [9]: > 100 µM (inactive)
GI50 [10]: > 100 µM (inactive)
GI50 [11]: > 100 µM (inactive)
GI50 [12]: > 100 µM (inactive)
GI50 [13]: > 100 µM (inactive)
GI50 [14]: > 100 µM (inactive)
GI50 [15]: > 100 µM (inactive)
GI50 [16]: > 100 µM (inactive)
GI50 [17]: > 100 µM (inactive)
GI50 [19]: > 100 µM
GI50 [20]: > 100 µM (inactive)
GI50 [21]: > 100 µM (inactive)
GI50 [22]: > 100 µM (inactive)
GI50 [23]: 82 µM (inactive)
GI50 [24]: > 100 µM (inactive)
GI50 [25]: > 100 µM (inactive)
GI50 [26]: > 100 µM (inactive)
GI50 [27]: > 100 µM (inactive)
GI50 [28]: > 100 µM (inactive)
GI50 [29]: > 100 µM (inactive)
GI50 [30]: > 100 µM (inactive)
GI50 [31]: > 100 µM (inactive)
GI50 [32]: > 100 µM (inactive)
GI50 [33]: > 100 µM (inactive)
GI50 [34]: > 100 µM (inactive)
GI50 [35]: > 100 µM (inactive)
GI50 [36]: > 100 µM (inactive)
GI50 [37]: > 100 µM (inactive)
GI50 [38]: > 100 µM (inactive)
GI50 [39]: > 100 µM (inactive)
GI50 [40]: > 100 µM (inactive)
GI50 [41]: > 100 µM (inactive)
GI50 [42]: > 100 µM (inactive)
GI50 [43]: > 100 µM (inactive)
GI50 [44]: > 100 µM (inactive)
GI50 [56]: > 100 µM (inactive)
GI50 [46]: > 100 µM (inactive)
GI50 [47]: > 100 µM (inactive)
GI50 [48]: > 100 µM (inactive)
GI50 [49]: > 100 µM (inactive)
GI50 [57]: > 100 µM (inactive)
GI50 [50]: > 100 µM (inactive)
GI50 [51]: > 100 µM (inactive)
GI50 [58]: > 100 µM (inactive)
GI50 [52]: > 100 µM (inactive)
GI50 [53]: > 100 µM (inactive)
GI50 [54]: > 100 µM (inactive)

[O-]c1c2c(nn1-c1ccc(Cl)cc1)c1ccccc1c[n+]2Cc1ccccc1
GI50 [1]: > 10 µM (inactive)
GI50 [2]: 32.2 µM (inactive)
GI50 [3]: 58.9 µM (inactive)
GI50 [4]: 65.9 µM (inactive)
GI50 [5]: > 100 µM (inactive)
GI50 [6]: > 100 µM (inactive)
GI50 [55]: 58.7 µM (inactive)
GI50 [7]: > 100 µM (inactive)
GI50 [8]: > 100 µM (inactive)
GI50 [9]: > 100 µM (inactive)
GI50 [10]: > 100 µM (inactive)
GI50 [11]: 35 µM (inactive)
GI50 [12]: 33.3 µM (inactive)
GI50 [13]: > 100 µM (inactive)
GI50 [14]: 62.4 µM (inactive)
GI50 [15]: > 100 µM (inactive)
GI50 [16]: > 100 µM (inactive)
GI50 [17]: > 100 µM (inactive)
GI50 [18]: 44.6 µM (inactive)
GI50 [20]: > 100 µM (inactive)
GI50 [21]: > 100 µM (inactive)
GI50 [22]: 80.5 µM (inactive)
GI50 [23]: > 100 µM (inactive)
GI50 [24]: > 100 µM (inactive)
GI50 [25]: > 100 µM (inactive)
GI50 [26]: 78.9 µM (inactive)
GI50 [27]: 40.2 µM (inactive)
GI50 [28]: > 100 µM (inactive)
GI50 [29]: > 100 µM (inactive)
GI50 [30]: 27 µM (inactive)
GI50 [31]: 46.2 µM (inactive)
GI50 [32]: > 100 µM (inactive)
GI50 [33]: > 100 µM (inactive)
GI50 [34]: > 100 µM (inactive)
GI50 [35]: > 100 µM (inactive)
GI50 [36]: > 100 µM (inactive)
GI50 [37]: > 100 µM (inactive)
GI50 [38]: > 100 µM (inactive)
GI50 [39]: > 100 µM (inactive)
GI50 [40]: > 100 µM (inactive)
GI50 [41]: 63.4 µM (inactive)
GI50 [42]: 81.5 µM (inactive)
GI50 [43]: > 100 µM (inactive)
GI50 [44]: > 100 µM (inactive)
GI50 [56]: 80.4 µM (inactive)
GI50 [45]: > 100 µM (inactive)
GI50 [46]: 95.3 µM (inactive)
GI50 [48]: > 100 µM (inactive)
GI50 [49]: > 100 µM (inactive)
GI50 [57]: > 100 µM (inactive)
GI50 [51]: > 100 µM (inactive)
GI50 [58]: > 100 µM (inactive)
GI50 [52]: 45.4 µM (inactive)
GI50 [53]: > 100 µM (inactive)
GI50 [54]: > 100 µM (inactive)
